The text below walks through data of PubChem BioAssay (NCI).

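Test compounds were applied to cells in 96-well plates for 48 hours at 5 doses. The concentration for full growth arrest is given as TGI.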 Bounds are passed on as bounds.

Assay in all cases: NCI-60 cell line screen, 48 h
Experiment [1] has as its system LOX IMVI melanoma.
Experiment [2] deals with MALME-3M melanoma.
The test system of experiment [3] is HOP-92 NSCLC.
The subject of experiment [4] is MDA-MB-231 breast.
In experiment [5] the test system is T-47D breast.
The subject of experiment [6] is RXF 393 renal.
The subject of experiment [7] is COLO 205 colon.
For experiment [8], the system named is BT-549 breast.
Experiment [9] concerns M14 melanoma.
For experiment [10], the system named is SF-295 CNS.
Experiment [11] has as its system HS 578T breast.
Experiment [12] concerns UACC-257 melanoma.
Experiment [13] concerns HL-60(TB) leukemia.
In experiment [14] the test system is IGROV1 ovarian.
In experiment [15] the test system is UACC-62 melanoma.
Experiment [16] concerns OVCAR-8 ovarian.
The subject of experiment [17] is DU-145 prostate.
The test system of experiment [18] is SK-OV-3 ovarian.

As to `CCc1n[nH]c(=S)n1/N=C\c1ccc(-c2ccccc2Cl)o1`, the TGI in experiment [1] is 66.6 µM; in [2] it was > 100 µM; in [3], > 100 µM; in [4], > 100 µM; in experiment [5], 87.5 µM; in experiment [6], > 100 µM. The TGI in experiment [7] is > 100 µM; in experiment [8], 66.6 µM; in [9], > 100 µM; in [10] it was > 100 µM; in [11] it was > 100 µM; in experiment [12], > 100 µM. Moreover, the TGI is 68 µM in experiment [13]; > 100 µM in experiment [14]; > 100 µM in experiment [15]; 61.7 µM in experiment [16]; > 100 µM in [17]; > 100 µM in experiment [18].
Take `N#Cc1c(-c2ccc(Cl)cc2)cc(-c2ccc(Nc3ccnc4cc(C(F)(F)F)ccc34)cc2)[nH]c1=O`: the TGI in experiment [1] was > 23.5 µM; in [2] it was > 100 µM; in [3] it was 32.7 µM; in experiment [4], 65.8 µM; in experiment [5], 14.8 µM; in experiment [6], 22.6 µM. The TGI in experiment [7] is 59.4 µM; in [8] it was 35.5 µM; in [9], 13.9 µM; in experiment [10], > 87.1 µM; in [11], > 100 µM; in experiment [12] it was > 100 µM. Besides, the TGI in experiment [13] was 35 µM; in experiment [14], > 100 µM; in [15], 39.6 µM; in experiment [16], > 100 µM; in [17] it was > 48.5 µM; in experiment [18] it was 73.1 µM.
Consider `Nc1ccccc1CCCC(=O)O`, for which the TGI in experiment [1], in experiment [2], in experiment [3], in experiment [4], in experiment [5] and in experiment [6] was > 100 µM in each case. Also, the TGI in experiment [7], in experiment [8], in experiment [9], in experiment [10], in experiment [11] and in experiment [12] was > 100 µM each time. Further, the TGI in [13], in experiment [14], in [15], in experiment [16], in experiment [17] and in [18] was > 100 µM throughout.
In the case of `CC1=NN(c2nc(N)nc(CCl)n2)CC1`, the TGI in [3] was 38.7 µM; in experiment [4] it was > 100 µM; in [5], > 100 µM; in experiment [6] it was > 100 µM; in experiment [7], 36.3 µM; in experiment [8], > 100 µM. For the same compound, the TGI in [9] is 80.4 µM; in [10], > 100 µM; in experiment [11], > 100 µM; in [12], > 100 µM; in experiment [13], 40 µM; in [14], 25.9 µM. In addition, the TGI is 31 µM in experiment [15], 48.6 µM in [16], > 100 µM in experiment [17] and > 100 µM in experiment [18].
Turning to `COc1cc(O)cc(/C=C/c2ccc(O)cc2)c1`, the TGI is > 100 µM in experiment [2]; 91.9 µM in experiment [3]; 47.9 µM in experiment [4]; > 100 µM in experiment [5]; > 100 µM in experiment [6]; > 100 µM in experiment [7]. Besides, the TGI in experiment [8] was 39.6 µM; in experiment [9], > 100 µM; in experiment [10], 84.3 µM; in [11] it was > 100 µM; in experiment [12], > 100 µM; in experiment [13], > 100 µM. The TGI was > 100 µM in experiment [14]; 60.5 µM in experiment [15]; > 100 µM in experiment [16]; > 100 µM in experiment [17]; > 100 µM in experiment [18].
In the case of `Cc1nc(C)c(C(=O)NNC(=O)Cc2ccccc2)cc1C(=O)NNC(=O)Cc1ccccc1`, the TGI in experiment [1], in [3], in experiment [4], in experiment [5], in experiment [6] and in [7] was > 100 µM throughout. The TGI in [8], in [9], in experiment [10], in experiment [11], in experiment [12] and in experiment [13] was > 100 µM in each case. The TGI in experiment [14], in experiment [15], in [16], in [17] and in experiment [18] was > 100 µM throughout.
`OCC(CN1CCCCC1)(CN1CCCCC1)CN1CCCCC1`: the TGI in experiment [1], in experiment [2], in [3], in experiment [4], in experiment [5] and in experiment [6] was > 100 µM each time. Further, the TGI in experiment [7], in experiment [8], in [9], in [11], in [12] and in experiment [13] was > 100 µM each time. Besides, the TGI in [14], in experiment [15], in [16], in experiment [17] and in experiment [18] was > 100 µM each time.
With `C#CCOC(=O)c1ccccc1O`, the TGI in experiment [1], in experiment [3], in experiment [4], in experiment [5], in [6] and in [7] was > 100 µM each time. For the same compound, the TGI in experiment [8], in experiment [9], in experiment [10], in experiment [11], in [12] and in [13] was > 100 µM in each case. In addition, the TGI in [14], in experiment [15], in experiment [16], in experiment [17] and in experiment [18] was > 100 µM throughout.
In the case of `COc1cc(C2c3cc4c(cc3OC(NC3CCCCC3)C2C)OCO4)cc(OC)c1OC` (stereo not drawn), the TGI in experiment [1] worked out at 17.6 µM; in experiment [3] it was 22.1 µM; in [4], 2.26 µM; in experiment [5], 66.7 µM; in [6] it was 0.82 µM; in experiment [7], 0.825 µM. The TGI in experiment [8] is 26.4 µM; in experiment [9], 36.6 µM; in experiment [10], 0.577 µM; in experiment [11], 58.3 µM; in experiment [12], > 100 µM; in experiment [13] it was 0.675 µM. Further, the TGI in [14] was > 54 µM; in experiment [15] it was 43.2 µM; in experiment [16] it was 15.6 µM; in experiment [17], > 100 µM; in experiment [18] it was 15.3 µM.
`COc1ccc(NC(=O)CC(=O)N2N=C(N3CCCCC3)CC2c2ccccc2)cc1` (stereo not drawn): the TGI in experiment [1], in [2], in experiment [3], in experiment [4], in experiment [5] and in experiment [6] was > 100 µM throughout. The TGI in experiment [7], in experiment [8], in experiment [9], in [10], in [11] and in experiment [12] was > 100 µM in each case. Also, the TGI in experiment [13], in experiment [14], in experiment [15], in experiment [16] and in experiment [17] was > 100 µM each time.
For the compound `CCCCON1C[C@@H](O)C(O)[C@@H](O)C1` (stereo partly drawn), the TGI in experiment [1], in experiment [2], in experiment [3], in [4], in [5] and in [6] was > 100 µM in each case. Further, the TGI in [7], in [8], in experiment [9], in experiment [10], in experiment [11] and in [12] was > 100 µM in each case. Further, the TGI in experiment [13], in experiment [14], in experiment [15], in [16] and in [17] was > 100 µM throughout.
As to `CCN(CC)CC(=O)Nc1c(C(N)=O)nnn1Cc1cc(Cl)c(C(=O)c2ccc(Cl)cc2)c(Cl)c1`, the TGI in [1] came out at 32.1 µM; in experiment [3], 53.2 µM; in [4] it was 34.8 µM; in experiment [5], 61.9 µM; in experiment [6] it was 23.8 µM; in experiment [7], 33.2 µM. In addition, the TGI in experiment [8] stood at 34.6 µM; in experiment [9] it was 30.9 µM; in [10], 32.9 µM; in experiment [11], 33 µM; in experiment [12], 32.6 µM; in experiment [13], 39.5 µM. Moreover, the TGI in experiment [14] amounted to 74.4 µM; in [15] it was 35.4 µM; in [16], 34.7 µM; in experiment [17], 90.2 µM; in [18], 51.5 µM.
Consider `O=C(/C=C(\O)c1ccc(Cl)cc1)C(=O)N=Nc1c(O)[nH]c2ccc(Br)cc12`, for which the TGI in experiment [1], in [2], in experiment [3], in experiment [4], in [5] and in experiment [6] was > 100 µM each time. Moreover, the TGI in experiment [7], in [8], in [9], in experiment [10], in experiment [11] and in experiment [12] was > 100 µM each time. Further, the TGI in experiment [14], in experiment [15], in experiment [16], in experiment [17] and in experiment [18] was > 100 µM in each case.
